In patent US6620848B2, “Nitric oxide synthase inhibitors” (SmithKline Beecham Corporation, priority 1997, dated 2003):

How the values were obtained:
eNOS = biological target: T1, eNOS (Rattus norvegicus, UniProt Q62600); test: Inhibition of eNOS in situ in rat aortic rings (basal tone, intact endothelium); type: cell-based; conditions: rat aortic rings with intact endothelium, threshold phenylephrine
T1 construct: from tissue; host or cells: rat thoracic aorta rings with intact endothelium
Method: (§1) 1. Inhibition of eNOS and iNOS in Rat Aortic Rings
(§2) The inhibition of eNOS and iNOS in situ in rat aortic rings was assessed by measuring the increases in ring tension caused by NO synthase inhibition. For studies of basal tone (reflecting eNOS), rings of thoracic aorta with intact endothelium were prepared as described previously (Rees et al. (1989) Br. J. Pharmol. 96, 418-424) and cumulative concentration curves obtained for the inhibitors in the presence of a threshold concentration of phenylephrine (ED10≈10 nM). For studies of induced smooth muscle tone (reflecting iNOS), endothelium-denuded rings were exposed to LPS (0.1 μ/ml from S. typhosa) in the presence of phenylephrine at approximately ED90 for 6 h as described previously (Rees et al. (1990) Biochem. Biophys. Res. Commun. 173, 541-547). During this time a progressive loss of tone occurred because of iNOS induction. Cumulative concentration curves were then obtained for the inhibitors.

iNOS = biological target: T2, iNOS (Rattus norvegicus, UniProt Q06518); test: Inhibition of iNOS in situ in rat aortic rings (induced smooth muscle tone, LPS-exposed endothelium-denuded rings); type: cell-based; conditions: for IC50: endothelium-denuded, LPS 6 h, phenylephrine approx. ED90
T2 construct: endothelium-denuded rings were exposed to LPS; from tissue; host or cells: rat thoracic aorta rings, endothelium-denuded, LPS-exposed
Method: as §1, §2

Compound | eNOS % inhib @ 300 μM (eNOS) [%] | selectivity iNOS vs eNOS (iNOS) [fold] | IC50 (iNOS) [µM]
CC(=N)NCCSCCC(N)C(=O)O (racemic) [Example 2, (R/S)-[2-(1-iminoethylamino)ethyl]-D,L-homocysteine] | 53 | >500 | 0.45
CC(=N)NCCSCC[C@@H](N)C(=O)O [Example 3, (R)-[2-(1-iminoethylamino)ethyl]-D-homocysteine] | 20 | >150 | 6.6
